Source: PMC5218480 (PLoS ONE, 2017)

Tested on: MV-4-11 cells
Assay: Gene expression microarray analysis (Affymetrix PrimeView) and GSEA
Assay type: cell-based, human
Parameters: RFU PODN (11730768_x_at) / Fold change /veh PODN (11730768_x_at) / RFU LINC00158 (11744669_a_at) / Fold change /veh LINC00158 (11744669_a_at) / RFU DUSP10 (11751237_a_at) / Fold change /veh DUSP10 (11751237_a_at) / RFU ID3 (11757404_x_at) / Fold change /veh ID3 (11757404_x_at) / RFU PLEKHG5 (11737974_s_at) / Fold change /veh PLEKHG5 (11737974_s_at) / RFU LRRC4B (11730491_at) / Fold change /veh LRRC4B (11730491_at) / RFU GIMAP4 (11747438_a_at) / Fold change /veh GIMAP4 (11747438_a_at) / RFU KRT8 (11758183_x_at) / Fold change /veh KRT8 (11758183_x_at) / RFU CNN1 (11734310_a_at) / Fold change /veh CNN1 (11734310_a_at) / RFU VPS37D (11726825_at) / Fold change /veh VPS37D (11726825_at) / RFU C10orf10 (11716522_x_at) / Fold change /veh C10orf10 (11716522_x_at) / RFU KIR2DL2 /// KIR2DL4 /// KIR2DL5A /// KIR2DL5B /// KIR2DS1 /// KIR2DS2 /// KIR2DS3 /// KIR2DS4 /// KIR3DL3 /// KIR3DL3 /// KIR3DS1 (11738374_at) / Fold change /veh KIR2DL2 /// KIR2DL4 /// KIR2DL5A /// KIR2DL5B /// KIR2DS1 /// KIR2DS2 /// KIR2DS3 /// KIR2DS4 /// KIR3DL3 /// KIR3DL3 /// KIR3DS1 (11738374_at) / RFU C1QL1 (11718748_at) / Fold change /veh C1QL1 (11718748_at) / RFU TMPRSS4 (11747572_a_at) / Fold change /veh TMPRSS4 (11747572_a_at) / RFU HAMP (11756126_x_at) / Fold change /veh HAMP (11756126_x_at) / RFU RNFT2 (11725882_a_at) / Fold change /veh RNFT2 (11725882_a_at) / RFU NR4A2 (11747474_a_at) / Fold change /veh NR4A2 (11747474_a_at) / RFU ABCC12 (11746883_a_at) / Fold change /veh ABCC12 (11746883_a_at) / RFU TMEM136 (11760407_x_at) / Fold change /veh TMEM136 (11760407_x_at) / RFU CLDN22 /// WWC2 (11732394_at) / Fold change /veh CLDN22 /// WWC2 (11732394_at) / RFU HLA-DPB1 (11760878_x_at) / Fold change /veh HLA-DPB1 (11760878_x_at) / RFU SPINT1 (11716480_a_at) / Fold change /veh SPINT1 (11716480_a_at) / RFU GAP43 (11754022_s_at) / Fold change /veh GAP43 (11754022_s_at) / RFU A4GNT (11735810_at) / Fold change /veh A4GNT (11735810_at) / RFU PRB3 (11715151_x_at) / Fold change /veh PRB3 (11715151_x_at) / RFU TUBB4B (11761932_at) / Fold change /veh TUBB4B (11761932_at) / RFU CAPN14 (11732068_a_at) / Fold change /veh CAPN14 (11732068_a_at) / RFU TMCC2 (11721928_a_at) / Fold change /veh TMCC2 (11721928_a_at) / RFU IRGQ (11745062_a_at) / Fold change /veh IRGQ (11745062_a_at) / RFU FAM174B (11720279_a_at) / Fold change /veh FAM174B (11720279_a_at) / RFU TMPRSS4 (11748680_a_at) / Fold change /veh TMPRSS4 (11748680_a_at) / RFU FAM212B (11763350_a_at) / Fold change /veh FAM212B (11763350_a_at) / RFU PLEKHG5 (11743358_a_at) / Fold change /veh PLEKHG5 (11743358_a_at) / RFU ZSCAN30 (11745921_a_at) / Fold change /veh ZSCAN30 (11745921_a_at) / RFU CMKLR1 (11741424_a_at) / Fold change /veh CMKLR1 (11741424_a_at) / RFU LOC101060620 /// MAPK8IP1 (11723275_at) / Fold change /veh LOC101060620 /// MAPK8IP1 (11723275_at) / RFU SPTSSB (11747773_x_at) / Fold change /veh SPTSSB (11747773_x_at) / RFU PRSS12 (11739890_at) / Fold change /veh PRSS12 (11739890_at) / RFU BIN1 (11741810_x_at) / Fold change /veh BIN1 (11741810_x_at) / RFU WNT11 (11732464_a_at) / Fold change /veh WNT11 (11732464_a_at) / RFU C10orf10 (11716521_a_at) / Fold change /veh C10orf10 (11716521_a_at) / RFU C5orf56 (11738089_at) / Fold change /veh C5orf56 (11738089_at) / RFU CYB561 (11721691_x_at) / Fold change /veh CYB561 (11721691_x_at) / RFU ANKRD19P (11752326_a_at) / Fold change /veh ANKRD19P (11752326_a_at) / RFU OR2T12 /// OR2T33 /// OR2T8 (11738714_s_at) / Fold change /veh OR2T12 /// OR2T33 /// OR2T8 (11738714_s_at) / RFU VCAN (11748164_a_at) / Fold change /veh VCAN (11748164_a_at) / RFU JSRP1 (11732532_at) / Fold change /veh JSRP1 (11732532_at) / RFU KRTAP10-11 (11738290_x_at) / Fold change /veh KRTAP10-11 (11738290_x_at) / RFU MYO3A (11730013_a_at) / Fold change /veh MYO3A (11730013_a_at) / RFU EBF3 (11725865_a_at) / Fold change /veh EBF3 (11725865_a_at) / RFU CAMK2N1 (11719241_x_at) / Fold change /veh CAMK2N1 (11719241_x_at) / RFU C5orf56 (11738088_a_at) / Fold change /veh C5orf56 (11738088_a_at) / RFU OLFML3 (11715873_a_at) / Fold change /veh OLFML3 (11715873_a_at) / RFU LOC100653217 /// NTM (11731650_a_at) / Fold change /veh LOC100653217 /// NTM (11731650_a_at) / RFU MAPK11 (11762145_a_at) / Fold change /veh MAPK11 (11762145_a_at) / RFU FIZ1 (11724087_x_at) / Fold change /veh FIZ1 (11724087_x_at) / RFU OASL (11726364_x_at) / Fold change /veh OASL (11726364_x_at) / RFU SOX15 (11748057_x_at) / Fold change /veh SOX15 (11748057_x_at) / RFU CD79A (11719716_a_at) / Fold change /veh CD79A (11719716_a_at) / RFU HIST1H1D (11736915_at) / Fold change /veh HIST1H1D (11736915_at) / RFU CASKIN2 (11723855_a_at) / Fold change /veh CASKIN2 (11723855_a_at) / RFU LOC730098 (11760151_x_at) / Fold change /veh LOC730098 (11760151_x_at) / RFU OR4N2 (11742367_at) / Fold change /veh OR4N2 (11742367_at) / RFU PRRT2 (11749266_a_at) / Fold change /veh PRRT2 (11749266_a_at) / RFU SNX32 (11753110_a_at) / Fold change /veh SNX32 (11753110_a_at) / RFU CDHR5 (11726645_a_at) / Fold change /veh CDHR5 (11726645_a_at) / RFU RCAN1 (11760418_a_at) / Fold change /veh RCAN1 (11760418_a_at) / RFU FAM167A (11723789_a_at) / Fold change /veh FAM167A (11723789_a_at) / RFU FAM26E (11764081_at) / Fold change /veh FAM26E (11764081_at) / RFU ISYNA1 (11749810_s_at) / Fold change /veh ISYNA1 (11749810_s_at) / RFU ACY1 (11761880_at) / Fold change /veh ACY1 (11761880_at) / RFU 11764098_at / Fold change /veh 11764098_at / RFU SAMD14 (11745864_x_at) / Fold change /veh SAMD14 (11745864_x_at) / RFU NPB (11741838_a_at) / Fold change /veh NPB (11741838_a_at) / RFU TMPRSS6 (11731388_a_at) / Fold change /veh TMPRSS6 (11731388_a_at) / RFU KRTAP10-2 (11738614_at) / Fold change /veh KRTAP10-2 (11738614_at) / RFU ARHGAP8 /// PRR5-ARHGAP8 (11727945_x_at) / Fold change /veh ARHGAP8 /// PRR5-ARHGAP8 (11727945_x_at) / RFU KRTAP5-7 /// NADSYN1 (11734609_at) / Fold change /veh KRTAP5-7 /// NADSYN1 (11734609_at) / RFU RASL12 (11751679_a_at) / Fold change /veh RASL12 (11751679_a_at) / RFU CDKN2B (11736163_a_at) / Fold change /veh CDKN2B (11736163_a_at) / RFU PRF1 (11729649_at) / Fold change /veh PRF1 (11729649_at) / RFU, ZNF638 /// ZNF638-IT1 / Fold change vs veh, ZNF638 /// ZNF638-IT1 / RFU, PANK3 / Fold change vs veh, PANK3 / RFU, SH3YL1 / Fold change vs veh, SH3YL1 / RFU, ZEB2 / Fold change vs veh, ZEB2 / RFU, NRIP1 / Fold change vs veh, NRIP1 / RFU, PTTG1IP / Fold change vs veh, PTTG1IP / RFU, CAPN2 / Fold change vs veh, CAPN2 / RFU, MED14 / Fold change vs veh, MED14 / RFU, SNORA58 / Fold change vs veh, SNORA58 / RFU, C1orf63 / Fold change vs veh, C1orf63 / RFU, LRRFIP1 / Fold change vs veh, LRRFIP1 / RFU, NDUFAF7 / Fold change vs veh, NDUFAF7 / RFU, SLC12A2 / Fold change vs veh, SLC12A2 / RFU, IBTK / Fold change vs veh, IBTK / RFU, ESF1 / Fold change vs veh, ESF1 / Fold change vs veh, TMEM50B / RFU, TAOK1 / Fold change vs veh, TAOK1 / RFU, ACBD3 / Fold change vs veh, ACBD3 / RFU, TMA16 / Fold change vs veh, TMA16 / RFU, RWDD3 / Fold change vs veh, RWDD3 / RFU, BCAT1 / Fold change vs veh, BCAT1 / RFU, EDEM3 / Fold change vs veh, EDEM3 / RFU, TMEM33 / Fold change vs veh, TMEM33 / RFU, WDR75 / Fold change vs veh, WDR75 / RFU, AHCTF1 / Fold change vs veh, AHCTF1 / RFU, TFRC / Fold change vs veh, TFRC / RFU, ZDHHC17 / Fold change vs veh, ZDHHC17 / RFU, NOM1 / Fold change vs veh, NOM1 / RFU, ARL8B / Fold change vs veh, ARL8B / RFU, ZBTB11 / Fold change vs veh, ZBTB11 / RFU, TAMM41 / Fold change vs veh, TAMM41 / RFU, KIAA1704 /// LOC100996395 / Fold change vs veh, KIAA1704 /// LOC100996395 / RFU, ING1 / Fold change vs veh, ING1 / RFU, TRMT61B / Fold change vs veh, TRMT61B / RFU, FUBP3 / Fold change vs veh, FUBP3 / RFU, TP53 / Fold change vs veh, TP53 / RFU, TNKS2 / Fold change vs veh, TNKS2 / RFU, ZFP14 / Fold change vs veh, ZFP14 / RFU, ACTR2 / Fold change vs veh, ACTR2 / RFU, PPP3R1 / Fold change vs veh, PPP3R1 / RFU, PIK3R1 / Fold change vs veh, PIK3R1 / RFU, HNRNPA1 / Fold change vs veh, HNRNPA1 / RFU, RNF170 / Fold change vs veh, RNF170 / RFU, ZNF28 / Fold change vs veh, ZNF28 / RFU, RNGTT / Fold change vs veh, RNGTT / RFU, OGT / Fold change vs veh, OGT / RFU, BRD1 / Fold change vs veh, BRD1 / RFU, MARS / Fold change vs veh, MARS / RFU, ZNF655 / Fold change vs veh, ZNF655 / RFU, FAHD1 / Fold change vs veh, FAHD1 / RFU, BDP1 / Fold change vs veh, BDP1 / RFU, LRRCC1 / Fold change vs veh, LRRCC1 / RFU, ARID1A / Fold change vs veh, ARID1A / RFU, ZNF146 / Fold change vs veh, ZNF146 / RFU, ZNF330 / Fold change vs veh, ZNF330 / RFU, GPN3 / Fold change vs veh, GPN3 / RFU, C9orf123 / Fold change vs veh, C9orf123 / RFU, N4BP2L2 / Fold change vs veh, N4BP2L2 / RFU, ARFIP1 / Fold change vs veh, ARFIP1 / RFU, FAM179B / Fold change vs veh, FAM179B / RFU, BCL10 / Fold change vs veh, BCL10 / RFU, UHRF1BP1L / Fold change vs veh, UHRF1BP1L / RFU, BET1 / Fold change vs veh, BET1 / RFU, CNOT2 / Fold change vs veh, CNOT2 / RFU, ZNF268 / Fold change vs veh, ZNF268 / Fold change vs veh, ZNF507 / RFU, DGCR2 / Fold change vs veh, DGCR2 / RFU, WDSUB1 / Fold change vs veh, WDSUB1 / Fold change vs veh, HSP90B1 /// MIR3652 / RFU, ADSS / Fold change vs veh, ADSS / RFU, GK / Fold change vs veh, GK / RFU, ZNF148 / Fold change vs veh, ZNF148 / RFU, TAF9 / Fold change vs veh, TAF9 / RFU, SLC1A5 / Fold change vs veh, SLC1A5 / RFU, SLMO2 / Fold change vs veh, SLMO2 / RFU, ABCC4 / Fold change vs veh, ABCC4 / RFU, LOC101060439 /// RAP1B / Fold change vs veh, LOC101060439 /// RAP1B / RFU, RFX7 / Fold change vs veh, RFX7 / RFU, GTPBP10 / Fold change vs veh, GTPBP10 / RFU, CNEP1R1 / Fold change vs veh, CNEP1R1 / RFU, BIVM-ERCC5 /// ERCC5 / Fold change vs veh, BIVM-ERCC5 /// ERCC5 / RFU, ILF3 / Fold change vs veh, ILF3 / RFU 11762660_at / Fold change /veh 11762660_at / RFU VCAN (11757783_s_at) / Fold change /veh VCAN (11757783_s_at) / RFU DDX43 (11728927_at) / Fold change /veh DDX43 (11728927_at) / RFU KRT8 (11758188_x_at) / Fold change /veh KRT8 (11758188_x_at) / RFU NKD1 (11759106_at) / Fold change /veh NKD1 (11759106_at) / RFU SRD5A1 (11742802_a_at) / Fold change /veh SRD5A1 (11742802_a_at) / RFU TPSAB1 /// TPSB2 (11721975_s_at) / Fold change /veh TPSAB1 /// TPSB2 (11721975_s_at) / RFU GSTM3 (11746129_a_at) / Fold change /veh GSTM3 (11746129_a_at) / RFU IL23R (11737362_x_at) / Fold change /veh IL23R (11737362_x_at) / RFU TMEM51 (11727254_a_at) / Fold change /veh TMEM51 (11727254_a_at) / RFU PIWIL2 (11732686_x_at) / Fold change /veh PIWIL2 (11732686_x_at) / RFU ORM1 (11744905_x_at) / Fold change /veh ORM1 (11744905_x_at) / RFU CCDC152 (11743942_at) / Fold change /veh CCDC152 (11743942_at) / RFU ECM1 (11717891_a_at) / Fold change /veh ECM1 (11717891_a_at) / RFU IL23R (11748794_a_at) / Fold change /veh IL23R (11748794_a_at) / RFU TNFAIP8L3 (11732012_x_at) / Fold change /veh TNFAIP8L3 (11732012_x_at) / RFU MBOAT4 (11741988_at) / Fold change /veh MBOAT4 (11741988_at) / RFU 11764193_at / Fold change /veh 11764193_at / RFU TMEM53 (11763286_at) / Fold change /veh TMEM53 (11763286_at) / RFU MAGEB2 (11727129_at) / Fold change /veh MAGEB2 (11727129_at) / RFU TMEM200A (11744735_a_at) / Fold change /veh TMEM200A (11744735_a_at) / RFU CCDC152 (11751479_a_at) / Fold change /veh CCDC152 (11751479_a_at) / RFU FAM211A (11726209_a_at) / Fold change /veh FAM211A (11726209_a_at) / RFU RGS16 (11746705_a_at) / Fold change /veh RGS16 (11746705_a_at) / RFU VCAN (11755009_s_at) / Fold change /veh VCAN (11755009_s_at) / RFU RHOB (11743442_s_at) / Fold change /veh RHOB (11743442_s_at) / RFU RGS16 (11720943_a_at) / Fold change /veh RGS16 (11720943_a_at) / RFU RGS16 (11720944_at) / Fold change /veh RGS16 (11720944_at) / RFU, VPS4B / Fold change vs veh, VPS4B / RFU, CREB1 / Fold change vs veh, CREB1 / RFU, DNAJC13 / Fold change vs veh, DNAJC13 / RFU, GNAQ / Fold change vs veh, GNAQ / RFU, CDK5R1 / Fold change vs veh, CDK5R1 / RFU, ZRANB3 / Fold change vs veh, ZRANB3 / RFU, CUL4A / Fold change vs veh, CUL4A / RFU, CCNY / Fold change vs veh, CCNY / RFU, UFL1 / Fold change vs veh, UFL1 / RFU, COG3 / Fold change vs veh, COG3 / RFU, DIAPH2 / Fold change vs veh, DIAPH2 / RFU, SKA2 / Fold change vs veh, SKA2 / RFU, AFF3 / Fold change vs veh, AFF3 / RFU, LMF1 / Fold change vs veh, LMF1 / RFU, IPO11 / Fold change vs veh, IPO11 / RFU, DFFB / Fold change vs veh, DFFB / RFU, FOXP1 / Fold change vs veh, FOXP1 / RFU, CARD8 / Fold change vs veh, CARD8 / RFU, STRN3 / Fold change vs veh, STRN3 / RFU, ADK / Fold change vs veh, ADK / RFU, RASSF2 / Fold change vs veh, RASSF2 / RFU, WIPF1 / Fold change vs veh, WIPF1 / RFU, LARP1B / Fold change vs veh, LARP1B / RFU, RASA1 / Fold change vs veh, RASA1 / RFU, RB1 / Fold change vs veh, RB1 / RFU, PPFIA1 / Fold change vs veh, PPFIA1 / RFU, MAT2A / Fold change vs veh, MAT2A / RFU, CCT5 / Fold change vs veh, CCT5 / RFU, WDR92 / Fold change vs veh, WDR92 / RFU, CUX1 / Fold change vs veh, CUX1 / RFU, TTC7A / Fold change vs veh, TTC7A / RFU, TMEM135 / Fold change vs veh, TMEM135 / RFU, DEPTOR / Fold change vs veh, DEPTOR / RFU, CPM / Fold change vs veh, CPM / RFU, DNAJB6 / Fold change vs veh, DNAJB6 / RFU, CACNA2D3 / Fold change vs veh, CACNA2D3 / RFU, DTX4 / Fold change vs veh, DTX4 / RFU, TFCP2 / Fold change vs veh, TFCP2 / RFU, GMCL1 /// GMCL1P1 / Fold change vs veh, GMCL1 /// GMCL1P1 / RFU, AEBP2 / Fold change vs veh, AEBP2 / RFU, SNHG1 /// SNORD22 /// SNORD25 /// SNORD26 /// SNORD27 /// SNORD28 /// SNORD29 /// SNORD31 / Fold change vs veh, SNHG1 /// SNORD22 /// SNORD25 /// SNORD26 /// SNORD27 /// SNORD28 /// SNORD29 /// SNORD31 / Fold change (Aza/veh), C12orf56 (ProbeSet 11735607_a_at) / Fold change (ACY-1035/veh), C12orf56 (ProbeSet 11735607_a_at) / Fold change (Aza/veh), FGFR1OP (ProbeSet 11751329_s_at) / Fold change (ACY-1035/veh), FGFR1OP (ProbeSet 11751329_s_at) / Fold change (Aza/veh), VPS36 (ProbeSet 11739960_a_at) / Fold change (ACY-1035/veh), VPS36 (ProbeSet 11739960_a_at) / RFU SYPL1 (11715823_x_at) / Fold change /veh SYPL1 (11715823_x_at) / RFU IGFBP7 (11715501_s_at) / Fold change /veh IGFBP7 (11715501_s_at) / RFU REEP3 (11722064_at) / Fold change /veh REEP3 (11722064_at) / RFU IGLL1 (11728026_x_at) / Fold change /veh IGLL1 (11728026_x_at): dose or concentration left out as unconfirmed
Conditions: MV-4-11 cells, 48 hours

**Q.** With `Nc1ncn([C@@H]2O[C@H](CO)[C@@H](O)[C@H]2O)c(=O)n1` [azacitidine] as the compound, how does the “RFU TMPRSS4 (11747572_a_at)” value read?
**A.** The value was 53.17 RFU.
